Measured values reported in US4672055A, “Erythromycin salt with mucosecretolytic and fluidizing activity and pharmaceutical compositions thereof” (priority 1984, dated 1987).
Values after ≈ are worked out from the molar mass of the structure shown. Read-outs that look alike come from different tables or passages of the source.

How the values were obtained:
bronchial mucus = assay: Fluidizing "in vivo" activity of bronchial mucus of bronchitic rabbits (viscosity); design: species or system rabbit (male); settings: oral, based on d,l-sobrerol taken equal to 100
Method: A method for studying viscosity of bronchial mucus of a bronchitic rabbit (R. Scuri et al-Il Farmaco, Ed.Pr. 36, 36-48, 1981).
Male rabbits weighing […], made bronchitic by sulphuric acid aerosol treatment according to the method of Cantarelli (G. Cantarelli et al--Il Farmaco, Ed. Pr. 34, 393-416, 1979), are treated with the test drugs and the bronchial mucus is collected by means of a tracheal cannula according to the procedure of R. Scuri (R. Scuri et al -Boll. Chim. Farm. 119, 181-7, 1980). Viscosity of the mucus as withdrawn is studied by using a Contraves RM16 micro viscosimeter and it is recorded by a Rheomat 15T -FC apparatus.
The activity of the compound of formula (I) of this invention is based on the one of d,1-sobrerol, taken equal to 100.

[1] = Acute toxicity (LD50) in the mouse after single oral administration; type: in vivo, mouse (Swiss albine, female); settings: in vivo, mortality at 14th day, read-out: DL50 (LD50)
Method: (§1) Method for studying LD50 in the mouse after a single oral administration.
(§2) Groups of 10 Swiss albine, female, adult (g.20-22) mice, fasting from the evening preceding the test, are treated by oral way with various doses (4 to 5) of the test drugs, dissolved/suspended in 1% hydroxyethyl cellulose (volume administered : 20ml/kg). Thereafter, the animals are fed again. (Morini MIL fodder for mice)
(§3) The 50% lethal dose (LD50) is calculated by the method of Litchfield, J.T. and Wilcoxon, F. (J. Pharmacol. 96,99-113,1949) by the mortality data as obtained at 14th day after the drug treatment.

[2] = system: mucoproduction (bronchial secretion); assay: Bronchosecretagogue activity (mucoproduction) in the rabbit; type: in vivo, rabbit (male brown); settings: oral, percent increase of mucoproduction, period II vs I, based on d,l-trans-sobrerol taken equal to 100
Method: Method of mucoproduction in the rabbit according to Scuri R. et al, Boll Chim. Farm. 119, 181-7, 1980.
Male brown rabbits weighing 2.8-3.5 kg. are employed. To said animals, by surgical operation under anaesthesia, a T shaped tracheal cannula is applied, as described in the bibliographic reference mentioned above.
To the cannula, a container (a polyproylene 2 ml test tube) is applied for periodical collection of the bronchial secretion. The study of mucoproduction started at the fourth day after the operation, is divided into two 4 hour periods for collecting and measuring the mucus, and exactly from 8:30 to 12:30 (I) and from 12:30 to 16:30 (II).
The activity of each drug is tested by administering the same by oesophageal way (os) at the begining of the II period and by evaluating the percent increase of mucoproduction (weight of the mucus as collected) over the II period as compared to the I period.
The activity of the compound of formula (I), of the present invention, is based on the d,1-trans-sobrerol one, taken equal to 100.

Proteus vulg. X 19 = assay: Antimicrobic in vitro activity, MIC; type: cell-based
Method: (§4) Microbiologic "in vitro" tests. Tests carried out in order to evaluate the values of the Minimum Inhibiting Concentrations (MIC) are performed by the method of the substrate treated with scalar drugs concentrations, by the "multi-points inoculator" technique.
(§5) As test strains, bacteria from clinical isolation and from international culture collections are tested.
(§6) In the tables, the MIC values (mcg/ml), as obtained employing the Mueller-Hinton medium , are reported.
(§7) The MIC values in the tables refer to readings after 24 and 48 hours at 37° C.

Esch. coli 418 = assay: Antimicrobic in vitro activity, MIC; type: cell-based; settings: Mueller-Hinton medium
Method: as §4, §5, §6, §7

Staph. aureus 6538 = assay: Antimicrobic in vitro activity, MIC; type: cell-based; settings: Mueller-Hinton medium
Method: as §4, §5, §6, §7
(§8) The strains with 4 figures are of ATCC.

Staph. aureus 14154 = assay: Antimicrobic in vitro activity, MIC; type: cell-based; settings: Mueller-Hinton medium
Method: as §4, §5, §6, §7, §8

Strept. faecalis 8043 = assay: Antimicrobic in vitro activity, MIC; type: cell-based; settings: Mueller-Hinton medium
Method: as §4, §5, §6, §7, §8

[3] = system: Pseud. aerug. clin (strain 10); assay: Antimicrobic in vitro activity, MIC; type: cell-based; settings: Mueller-Hinton medium, 24 hours at 37° C.
Method: as §4, §5, §6, §7
(§9) clin = clinic isolation

Cand. albicans clin = assay: Antimicrobic in vitro activity, MIC; type: cell-based; settings: Mueller-Hinton medium
Method: as §4, §5, §6, §7, §9

Strept. faecalis clin = assay: Antimicrobic in vitro activity, MIC; type: cell-based; settings: Mueller-Hinton medium
Method: as §4, §5, §6, §7, §9

Serr. marcescens clin = assay: Antimicrobic in vitro activity, MIC; type: cell-based
Method: as §4, §5, §6, §7, §9

[4] = system: Pseud. aerug. clin (strain 11); assay: Antimicrobic in vitro activity, MIC; type: cell-based; settings: Mueller-Hinton medium
Method: as §4, §5, §6, §7, §9

[5] = system: Pseud. aerug. clin (strain 12); assay: Antimicrobic in vitro activity, MIC; type: cell-based; settings: Mueller-Hinton medium, 24 hours at 37° C.
Method: as §4, §5, §6, §7, §9

[6] = system: Staph. epiderm clin (strain 4); assay: Antimicrobic in vitro activity, MIC; type: cell-based; settings: Mueller-Hinton medium
Method: as §4, §5, §6, §7, §9

[7] = Pharmacokinetics: plasma levels of erythromycin after oral administration; type: in vivo, Wistar rats
Method: (§10) Two groups of Wistar rats (180-270g.) are utilized. To the first group the compound of formula (I) of this invention, orally (transoesophageal intubation) at the dose of 800mg/kg, is administered, whilst to the second, again by the oral way, 585 mg/kg of erythromycin are administered.
(§11) Before treatment the rats were fasting for about 15 hours and were allowed to drink ad libitum. In both cases at 0.5 h; 1h;1.5 h; 2h; 3h; 4h; 6h from administration 5 rats/time are sacrificed. The blood as collected in test tubes containing sodium heparin is centrifuged and the plasma so obtained is utilized for the quantitative analysis of erythromycin by means of the micorbiologic standard method, using Staphylococcus aureus as a test organisum (P.G. Welling and W.A. Craig, J. Pharm. Sci. 67, 1057 (1978)).

mouse = assay: Acute toxicity (LD50) in the mouse after single oral administration; type: in vivo, mouse (Swiss albine, female); settings: mortality at 14th day
Method: as §1, §2, §3

[8] = Pharmacokinetics: erythromycin in lungs after oral administration; type: in vivo; settings: Wistar rats, single oral 800 mg/kg vs erythromycin 585 mg/kg; lung homogenate
Method: as §10, §11
From the same rats, in similar manner, the lungs are withdrawn and, after homogenizing the tissue, the erythromycin rates are evaluated.

[9] = 24 hours at 37° C., read-out: MIC
[10] = 48 hours at 37° C., read-out: MIC
[11] = Mueller-Hinton medium, 24 hours at 37° C.
[12] = Mueller-Hinton medium, 48 hours at 37° C.

With CC1=CC[C@@H](C(C)(C)O)C[C@@H]1O (relative stereo) [d,l-trans-sobrerol] the “Fluidizing in vivo activity (relative to d,l-sobrerol = 100)” value (bronchial mucus) was 100, the LD50 at 336 h [1] was 2340 mg/kg and the “Bronchosecretagogue activity (relative to d,l-trans-sobrerol = 100)” value [2] was 100.
With CC[C@H]1OC(=O)[C@H](C)[C@@H](O[C@H]2C[C@@](C)(OC)[C@@H](O)[C@H](C)O2)[C@H](C)[C@@H](O[C@@H]2O[C@H](C)C[C@H](N(C)C)[C@H]2O)[C@](C)(O)C[C@@H](C)C(=O)[C@H](C)[C@@H](O)[C@]1(C)O [erythromycin] the “Fluidizing in vivo activity (relative to d,l-sobrerol = 100)” value (bronchial mucus) was 0, the MIC (Proteus vulg. X 19; 24 h) was 2.5 µg/mL (≈ 3.41 µM) and the MIC (Proteus vulg. X 19; 48 h) was 2.5 µg/mL (≈ 3.41 µM). For the same compound, the MIC (Esch. coli 418; Escherichia coli, 418, 24 hours at 37° C., read-out: MIC) was 25 µg/mL (≈ 34.1 µM), the MIC (Esch. coli 418; Escherichia coli, 418, 48 hours at 37° C., read-out: MIC) was 25 µg/mL (≈ 34.1 µM) and the MIC (Staph. aureus 6538; Staphylococcus aureus, 6538, 24 hours at 37° C., read-out: MIC) was 10 µg/mL (≈ 13.6 µM). For the same compound, the MIC (Staph. aureus 6538; Staphylococcus aureus, 6538, 48 hours at 37° C., read-out: MIC) was 10 µg/mL (≈ 13.6 µM), the MIC (Staph. aureus 14154; Staphylococcus aureus, 14154, 24 hours at 37° C., read-out: MIC) was 10 µg/mL (≈ 13.6 µM) and the MIC (Staph. aureus 14154; Staphylococcus aureus, 14154, 48 hours at 37° C., read-out: MIC) was 10 µg/mL (≈ 13.6 µM). The MIC (Strept. faecalis 8043; Enterococcus faecalis, 8043, 24 hours at 37° C., read-out: MIC) was 0.3 µg/mL (≈ 0.409 µM), the MIC (Strept. faecalis 8043; Enterococcus faecalis, 8043, 48 hours at 37° C., read-out: MIC) was 0.3 µg/mL (≈ 0.409 µM) and the LD50 at 336 h [1] was over 5000 mg/kg. The “Bronchosecretagogue activity (relative to d,l-trans-sobrerol = 100)” value [2] was 0, the MIC ([3]; read-out: MIC) was over 100 µg/mL and the MIC (Cand. albicans clin; Candida albicans, 24 hours at 37° C., read-out: MIC) was 100 µg/mL (≈ 136 µM). It also gave an MIC (Cand. albicans clin; Candida albicans, 48 hours at 37° C., read-out: MIC) of 100 µg/mL (≈ 136 µM), an MIC (Strept. faecalis clin; Enterococcus faecalis, 24 hours at 37° C., read-out: MIC) of 0.3 µg/mL (≈ 0.409 µM) and an MIC (Strept. faecalis clin; Enterococcus faecalis, 48 hours at 37° C., read-out: MIC) of 0.3 µg/mL (≈ 0.409 µM). The MIC (Serr. marcescens clin; Serratia marcescens, 24 h) was 45 µg/mL (≈ 61.3 µM), the MIC (Serr. marcescens clin; Serratia marcescens, 48 h) was 50 µg/mL (≈ 68.1 µM) and the MIC [4, 9] was 100 µg/mL (≈ 136 µM). It also gave an MIC [4, 10] of 100 µg/mL (≈ 136 µM), an MIC ([5]; read-out: MIC) of over 100 µg/mL and an MIC [6, 9] of 10 µg/mL (≈ 13.6 µM). It also gave an MIC [6, 10] of 10 µg/mL (≈ 13.6 µM).
For “Erythromycinsalt of 5-(3-carboxy-1-oxopropoxy)-α, α 4-trimethyl-3-cyclohexene-1-methanol [CO/1311]”, the “Fluidizing in vivo activity (relative to d,l-sobrerol = 100)” value (bronchial mucus) was 132, the “plasmatic levels of erythromycin vs equidose erythromycin administration” value ([7]; Wistar rats, single oral 800 mg/kg vs erythromycin 585 mg/kg, 0.5-6 h, microbiologic assay) was “significantly higher” and the “bioavailability of erythromycin vs the antibiotic administered as such” value ([7]; rat, in vivo) was “improved bioavailability”. It also gave an MIC (Proteus vulg. X 19; [11]) of 2.5 µg/mL, an MIC (Proteus vulg. X 19; [12]) of 2.5 µg/mL and an MIC (Esch. coli 418; 24 hours at 37° C.) of 25 µg/mL. For the same compound, the MIC (Esch. coli 418; 48 hours at 37° C.) was 25 µg/mL, the MIC (Staph. aureus 6538; 24 hours at 37° C.) was 10 µg/mL and the MIC (Staph. aureus 6538; 48 hours at 37° C.) was 10 µg/mL. It also gave an MIC (Staph. aureus 14154; 24 hours at 37° C.) of 10 µg/mL, an MIC (Staph. aureus 14154; 48 hours at 37° C.) of 10 µg/mL and an MIC (Strept. faecalis 8043; 24 hours at 37° C.) of 0.3 µg/mL. For the same compound, the MIC (Strept. faecalis 8043; 48 hours at 37° C.) was 0.3 µg/mL, the “DL50 (LD50)” value (mouse) was 4322.3 mg/kg and the “Bronchosecretagogue activity (relative to d,l-trans-sobrerol = 100)” value [2] was 140. The MIC [3] was over 100 µg/mL, the MIC (Cand. albicans clin; 24 hours at 37° C.) was 100 µg/mL and the MIC (Cand. albicans clin; 48 hours at 37° C.) was 100 µg/mL. For the same compound, the MIC (Strept. faecalis clin; 24 hours at 37° C.) was 0.4 µg/mL, the MIC (Strept. faecalis clin; 48 hours at 37° C.) was 0.4 µg/mL and the MIC (Serr. marcescens clin; [11]) was 50 µg/mL. It also gave an MIC (Serr. marcescens clin; [12]) of 50 µg/mL, an MIC ([4]; 24 hours at 37° C.) of 100 µg/mL and an MIC ([4]; 48 hours at 37° C.) of 100 µg/mL. It also gave an MIC [5] of over 100 µg/mL, an MIC ([6]; 24 hours at 37° C.) of 10 µg/mL and an MIC ([6]; 48 hours at 37° C.) of 10 µg/mL. For the same compound, the “erythromycin rates in lungs vs erythromycin administration” value [8] was “significantly higher”.
